The results in this text go back to ChEMBL document CHEMBL4325912, “Discovery of 2-(1H-imidazo-2-yl)piperazines as a new class of potent and non-cytotoxic inhibitors of Trypanosoma brucei growth in vitro” (Bioorg Med Chem Lett, 2018).

A short description of series [1]: Cytotoxicity against HUVEC. The conditions noted are these: human. Type of series: cell-based.
The nature of series [2]: Cytotoxicity against human HeLa cells assessed as reduction in cell viability after 72 hrs by celltiter glo assay. Type of series: cell-based.
Series [3] is described as follows: Selectivity index, ratio of EC50 for Trypanosoma cruzi to EC50 for antitrypanosomal activity against Trypanosoma brucei Lister 427 bloodstream forms. In kind it is functional.
Series [4] can be described thus: Selectivity index, ratio of EC50 for Plasmodium falciparum 3D7 infected in human erythrocytes to EC50 for antitrypanosomal activity against Trypanosoma brucei Lister 427 bloodstream forms. In kind it is functional.
The test system of series [5] is Trypanosoma cruzi. Put plainly: Antiparasitic activity against Trypanosoma cruzi. Type of series: functional, organism-based.
The test system of series [6] is Plasmodium falciparum. Briefly: Antimalarial activity against Plasmodium falciparum 3D7 infected in human erythrocytes after 72 hrs by spectrophotometric analysis. Type of series: functional, organism-based. The conditions noted are these: 3D7, 72 h.
Series [7] can be described thus: Half life in human hepatocytes. Type of series: ADME, cell-based, Hepatocyte.
Series [8] can be described thus: Half life in mouse hepatocytes. In kind it is ADME, cell-based, Hepatocyte.
Series [9] concerns Trypanosoma brucei. Briefly: Antitrypanosomal activity against Trypanosoma brucei Lister 427 bloodstream forms in presence of 10% FBS after 24 hrs by celltiter glo assay. In kind it is functional, organism-based. Conditions: Lister 427, 24 h. A general note: In ATP-based viability assays light output follows the ATP content of the culture.

Broadly, the CC50 is the concentration at which the toxic effect on the cells reaches its halfway point. By EC50 is commonly meant the concentration giving half of the maximal effect. For orientation: half-life means the time in which the quantity being followed falls by half. Consider `COc1ccc2[nH]c(C)c(CC(=O)N3CCN(CC4CCOC4)CC3c3ncc(-c4ccc5ccccc5c4)[nH]3)c2c1` (mixture of isomers), for which, in series [1], the CC50 came to 18.7 µM. Also, in series [2], the CC50 at 72 h was over 25 µM. Besides, the Ratio EC50 in series [3] and in series [4] was 1000 throughout. The figures for the EC50 in series [5], in series [6] and in series [9] were 8.12 µM, 3.62 µM and 0.005 µM, respectively. Moreover, the half-life in series [7] is 2.4 h; in series [8], 0.4 h.
